Experimental data from PubChem BioAssay AID1963852 (Molecular Pharmacology Branch, DTP, NCI, 2024).

Test system: 282377-053-R-J1-PDC complex spheroid viability
Test: Anticancer human tumor 282377-053-R-J1-PDC patient-derived colon adenocarcinoma cell line growth inhibition [POLQ]
Details: for IC50: curve of first compound; for viability, T/C: stronger effect = lower value
Summary of the method: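 PDC + HUVEC + MSC complex spheroids; POLQ inhibitors ± partner drugs; top conc. at/near clinical Cmax, else 10 microM (SN-38 1 microM), half-log dilutions; 37 degrees C, 5% CO2.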

[1] = second compound 0.0316 µM, first compound 0.0316 µM
[2] = second compound 0.0316 µM, first compound 0.1 µM
[3] = second compound 0.0316 µM, first compound 0.316 µM
[4] = second compound 0.0316 µM, first compound 1 µM
[5] = second compound 0.0316 µM, first compound 3.16 µM
[6] = second compound 0.0316 µM, first compound 10 µM
[7] = second compound 0.1 µM, first compound 0.0316 µM
[8] = second compound 0.1 µM, first compound 0.1 µM
[9] = second compound 0.1 µM, first compound 0.316 µM
[10] = second compound 0.1 µM, first compound 1 µM
[11] = second compound 0.1 µM, first compound 3.16 µM
[12] = second compound 0.1 µM, first compound 10 µM
[13] = second compound 0.316 µM, first compound 0.0316 µM
[14] = second compound 0.316 µM, first compound 0.1 µM
[15] = second compound 0.316 µM, first compound 0.316 µM
[16] = second compound 0.316 µM, first compound 1 µM
[17] = second compound 0.316 µM, first compound 3.16 µM
[18] = second compound 0.316 µM, first compound 10 µM
[19] = second compound 1 µM, first compound 0.0316 µM
[20] = second compound 1 µM, first compound 0.1 µM
[21] = second compound 1 µM, first compound 0.316 µM
[22] = second compound 1 µM, first compound 1 µM
[23] = second compound 1 µM, first compound 3.16 µM
[24] = second compound 1 µM, first compound 10 µM
[25] = second compound 3.16 µM, first compound 0.0316 µM
[26] = second compound 3.16 µM, first compound 0.1 µM
[27] = second compound 3.16 µM, first compound 0.316 µM
[28] = second compound 3.16 µM, first compound 1 µM
[29] = second compound 3.16 µM, first compound 3.16 µM
[30] = second compound 3.16 µM, first compound 10 µM
[31] = second compound 10 µM, first compound 0.0316 µM
[32] = second compound 10 µM, first compound 0.1 µM
[33] = second compound 10 µM, first compound 0.316 µM
[34] = second compound 10 µM, first compound 1 µM
[35] = second compound 10 µM, first compound 3.16 µM
[36] = second compound 10 µM, first compound 10 µM
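Further: spheroids exposed to compounds for seven days.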
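Wherever viability, T/C is given: 100% = DMSO vehicle control viability.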

Compound: COc1ccc([C@@H](O)c2cc(-c3ncnc4cc(N5CCOCC5)ccc34)c(F)cc2Cl)nn1 + COC1C(OC(N)=O)C(O)C(Oc2ccc3c(O)c(NC(=O)c4ccc(O)c(CC=C(C)C)c4)c(=O)oc3c2C)OC1(C)C
- IC50 (second compound 0.0316 µM): > 10000 nM
- IC50 (second compound 0.1 µM): > 10000 nM
- IC50 (second compound 0.316 µM): > 10000 nM
- IC50 (second compound 1 µM): > 10000 nM
- IC50 (second compound 3.16 µM): > 10000 nM
- IC50 (second compound 10 µM): > 10000 nM
- viability, T/C [1]: 109%
- viability, T/C [2]: 105%
- viability, T/C [3]: 104%
- viability, T/C [4]: 85.4%
- viability, T/C [5]: 85.4%
- viability, T/C [6]: 78.5%
- viability, T/C [7]: 108%
- viability, T/C [8]: 106%
- viability, T/C [9]: 95.1%
- viability, T/C [10]: 73.7%
- viability, T/C [11]: 70.1%
- viability, T/C [12]: 62.3%
- viability, T/C [13]: 96.5%
- viability, T/C [14]: 89.3%
- viability, T/C [15]: 78.2%
- viability, T/C [16]: 88.1%
- viability, T/C [17]: 77.5%
- viability, T/C [18]: 69.2%
- viability, T/C [19]: 93.2%
- viability, T/C [20]: 90.9%
- viability, T/C [21]: 101%
- viability, T/C [22]: 87.2%
- viability, T/C [23]: 95%
- viability, T/C [24]: 66.2%
- viability, T/C [25]: 94%
- viability, T/C [26]: 91.8%
- viability, T/C [27]: 90.7%
- viability, T/C [28]: 89.4%
- viability, T/C [29]: 79.3%
- viability, T/C [30]: 57.6%
- viability, T/C [31]: 102%
- viability, T/C [32]: 91.6%
- viability, T/C [33]: 91.7%
- viability, T/C [34]: 92.2%
- viability, T/C [35]: 60.1%
- viability, T/C [36]: 75.7%

Compound: CC1COCCN1c1cc(-c2ccnn2C)c2ccnc(-c3ccn[nH]3)c2n1 (centres undefined) + Cc1cccc(N(C)C(=O)C2C(O)CCN2c2nc(C)cc(C(F)(F)F)c2C#N)c1
- IC50 (second compound 0.0316 µM): 381 nM
- IC50 (second compound 0.1 µM): 551 nM
- IC50 (second compound 0.316 µM): 289 nM
- IC50 (second compound 1 µM): 362 nM
- IC50 (second compound 3.16 µM): 479 nM
- IC50 (second compound 10 µM): 634 nM
- viability, T/C [1]: 91.3%
- viability, T/C [2]: 86.4%
- viability, T/C [3]: 52.6%
- viability, T/C [4]: 32.6%
- viability, T/C [5]: 26.3%
- viability, T/C [6]: 24.5%
- viability, T/C [7]: 81.3%
- viability, T/C [8]: 80.9%
- viability, T/C [9]: 60.6%
- viability, T/C [10]: 37.4%
- viability, T/C [11]: 29.4%
- viability, T/C [12]: 23%
- viability, T/C [13]: 97%
- viability, T/C [14]: 90.2%
- viability, T/C [15]: 44.6%
- viability, T/C [16]: 38.4%
- viability, T/C [17]: 24.9%
- viability, T/C [18]: 21.9%
- viability, T/C [19]: 93.5%
- viability, T/C [20]: 68.5%
- viability, T/C [21]: 54.8%
- viability, T/C [22]: 36.2%
- viability, T/C [23]: 27.2%
- viability, T/C [24]: 22.7%
- viability, T/C [25]: 83.9%
- viability, T/C [26]: 70.4%
- viability, T/C [27]: 61.5%
- viability, T/C [28]: 33.1%
- viability, T/C [29]: 29.2%
- viability, T/C [30]: 22.5%
- viability, T/C [31]: 78.8%
- viability, T/C [32]: 71%
- viability, T/C [33]: 71.6%
- viability, T/C [34]: 35.8%
- viability, T/C [35]: 32.2%
- viability, T/C [36]: 20.8%
